Experimental data taken from patent US20260131033A1, “RADIOLABELED FRUCTOSE DERIVATIVES FOR MEDICAL IMAGING” (Yellowbird Diagnostics Inc., priority 2023, published 2026).

Experiments:
[1] = test system: mouse model of systemic inflammation (LPS); assay: [^18F]4-FDF PET/CT in LPS mouse model of systemic inflammation; assay type: in vivo
Procedure: In order to further investigate whether a fructolytic switch occurs in inflammatory neural and cardiac tissues, a mouse model of systemic inflammation was examined. [^18F]4-FDF PET/CT was performed on mice receiving vehicle (FIG. 5A) or bacterial cell wall LPS (FIG. 5B) 24 hr after injection. Sagittal, coronal, MIP, and axial sections of the brain, heart and muscle are shown. Time-activity curves (TAC) for brain (FIG. 5C), heart (FIG. 5D), and muscle (FIG. 5E) are shown for mice receiving vehicle (−LPS) or LPS (+LPS). Solid lines are the means and dotted lines are standard deviation. […] The plots show individual data points (circles), mean (long line) and s.d. (vertical line). * p<0.05 by ANOVA followed by Tukey's test.
Mice receiving saline vehicle (FIG. 5A) or intraperitoneal bacterial cell wall lipopolysaccharide (LPS), as previously described (FIG. 5B; Shrum, B. et al., 2014), were imaged by [^18F]4-FDF PET/CT 24 hr after injection. […] The low uptake of [^18F]4-FDF in healthy brain and heart contributed to an increased signal-to-noise ratio for the mapping of cardio- and neuroinflammation in tissues that are otherwise highly glycolytic and have high [^18F]FDG uptake in the absence of disease (FIG. 4C).
Eight-week-old male Balb/C mice received 5 mg/kg LPS through intraperitoneal injection 24-hr prior to planned PET/CT imaging. Mice were supported by being warmed, and by being given fluids subcutaneously 12 hr after LPS injection. The mice were monitored and scored for severity of response to LPS as described previously (Shrum, B. et al., 2014).
PET/CT Imaging. PET/CT imaging was carried out on a Bruker Si78PET/CT scanner with a 4-position hotel having adjustable isoflurane and respiratory monitoring for each position (Bruker USA). Tail veins were catheterized, and an anatomical CT was acquired over the whole of the mouse bodies using the “rat” settings. […] Tumor and tissue TACs were normalized to injected dose, measured by a CRC-15 PET dose calibrator (Capintec, Inc., NJ, USA), and expressed as percentage injected dose per cubic centimeter of tissue (% ID/cc).

[2] = Image-based dosimetry using OLINDA software; assay type: in vivo; conditions: all tissues, Balb/C mice, relative to [^18F]-2-fluoro-2-deoxyglucose
Procedure: Image-based dosimetry was evaluated in Balb/C mice (n=4) using OLINDA software. […] The bottom plot is a zoom of the y-axis from the top plot.

[3] = test system: concussed mouse brain; assay: PET/CT imaging of mice after closed-head concussive impact; assay type: in vivo, Balb/C mice
Procedure: Arrowhead indicates approximate location and direction of concussive blow. Mice were either left without head impact (Naïve), or received a single closed-head impact vertically at bregma 48 hrs prior to imaging. […] Average images from 20-40 min after the commencement of the scan are shown.

[4] = test system: heterotopic HepG2 xenograft mouse model; assay: Comparative PET/CT biodistribution in heterotopic HepG2 xenograft mouse model; assay type: in vivo; conditions: PET/CT
Procedure: After the confirmation of cell uptake and intracellular trapping of [U^13C]4-FDF, and the successful production of the radiofluorinated analog, the biodistribution of [^18F]4-FDF was evaluated in a heterotopic HepG2 xenograft mouse model and compared to the biodistribution of [^18F]6-FDF and [^18F]FDG. PET/CT images shown are the summed images from 20-45 min after intravenous injection of (FIG. 4A) [^18F]4-FDF, (FIG. 4B) [^18F]6-FDF, or (FIG. 4C) [^18F]FDG. Sagittal, coronal, and maximum intensity projection (MIP) are shown, in addition to axial sections at the level of the brain, heart, liver/kidneys, and hips. […] Purple represents an increase in AUC and blue represents a decrease in AUC. The values are normalized fold-change in AUC.
Eight-week-old female nu/nu mice were inoculated with 10×10^6 HepG2 cells suspended in 50% Matrigel:DMEM subcutaneously under the left shoulder. Within 3-weeks of implantation, mice were imaged by PET/CT.
PET/CT Imaging. PET/CT imaging was carried out on a Bruker Si78PET/CT scanner with a 4-position hotel having adjustable isoflurane and respiratory monitoring for each position (Bruker USA). Tail veins were catheterized, and an anatomical CT was acquired over the whole of the mouse bodies using the “rat” settings. PET acquisition was started just prior to a bolus i.v. injection of approximately 200 μCi of radiotracer. Dynamic scans were acquired in list mode format over 45 min and sorted into 16×0.5-mm sinogram bins for image reconstruction (4×15 s, 4×60 s and 8×300 s). Iterative reconstruction was performed using 3D ordered-subsets expectation maximization (3D-OSEM) followed by fast maximum a posteriori (fastMAP) using Paravision 360 software v.3.4 (Bruker, USA). Four-mouse images were split into individual mice, and the bed was removed using PMOD v (Bruker, USA). VivoQuant v.2022 (InviCRO) was used for visualization of radioradiotracer uptake in tissues, to define the three-dimensional (3D) volumes of interest (VOI) and for 3D-visualisation to create volume rendering technique images. The count densities were averaged for all volumes of interest at each time point to obtain a time versus activity curve (TAC). Tumor and tissue TACs were normalized to injected dose, measured by a CRC-15 PET dose calibrator (Capintec, Inc., NJ, USA), and expressed as percentage injected dose per cubic centimeter of tissue (% ID/cc).

[5] = 5 mg/kg LPS i.p., imaged 24 hr after injection, vs vehicle
[6] = HepG2 xenograft mice, intravenous injection

## OC[C@H]1OC(O)(CO)[C@@H](O)[C@@H]1[18F] (stereo partly shown) [[^18F]4-FDF, [^18F]-4-fluoro-4-deoxyfructose]
[1]; [5]
  brain uptake following LPS treatment: significant increase
  cardiac uptake following LPS treatment: significant increase
[1]; healthy brain and heart, PET/CT
  uptake in healthy brain and heart: low uptake
[2]
  organ dose deposition: less than or equal to the dose deposition for [^18F]-2-fluoro-2-deoxyglucose
[3]; naïve Balb/C mice, average images 20-40 min
  retention in naïve brain: limited retention
[3]; single closed-head impact at bregma 48 h prior to imaging, images 20-40 min
  brain retention following concussion: enhanced radiotracer retention
[4]; HepG2 xenograft mice
  bone uptake: < 2 % ID/g
[4]; [6]
  excretion route: renal exceeding hepatobiliary excretion
  tumor accumulation / pattern of radiotracer retention: accumulate in the tumor
[4]; compared with [^18F]FDG
  accumulation in normal mouse tissues: lower than that observed with [^18F]FDG
